Assay results: patent US11267815B2, “Class of amino-substituted nitrogen-containing fused ring compounds, preparation method therefor, and use thereof” (SHANGHAI RINGENE BIOPHARMA CO., LTD., priority 2017, dated 2022)
Where two headings read alike, the source gives them in different places.

Tests used:
FGFR4 = FGFR4 (Homo sapiens (Human), UniProt P22455); experiment: Inhibitory activity on kinase FGFR4 (Caliper mobility shift); assay type: biochemical; details: read-out: FGFR4 IC50
Method: (§1) (1). Preparation of 1×Kinase buffer; (2) Preparation of the gradient concentrations of the compounds: the concentration of the compounds to be tested started from 10 μM, which was 3-fold diluted to prepare 10 dilutions, and then tested in duplicated wells. The compounds were 100-fold serially diluted into 10 dilutions with different final concentrations in 96-well plates, each of which was further diluted with 1×Kinase buffer to prepare an intermediate dilution having a concentration of 5 times the final concentration; (3) adding 5 μL of each of the prepared compound solution into the compound wells of 384-well plates, and each concentration set single well; adding 5 μL of 5% DMSO into negative control wells and positive control wells respectively; (4) preparing a kinase solution having a concentration of 2.5 times the final concentration with 1×kinase buffer; (5) adding 10 μL of kinase solution at a concentration of 2.5 times the final concentration into the compound wells and the positive control wells respectively; and adding 10 μL of 1×Kinase buffer into the negative control wells; (6) centrifuging at 1000 rpm for 30 seconds, and incubating at room temperature for 10 minutes after shaking and mixing evenly; (7) preparing a mixed solution of ATP and Kinase substrate 22 having a concentration of 2.5 times the final concentration with 1×Kinase Buffer; (8) adding 10 μL of the mixed solution of ATP and substrate at a concentration of 2.5 times the final concentration to initiate the reaction; (9) Centrifuging the 384-well plates at 1000 rpm for 30 seconds, and incubating at 28° C. for corresponding time respectively after shaking and mixing; (10) adding 30 μL of stop detection solution to stop the kinase reaction, centrifuging at 1000 rpm for 30 seconds, and shaking and mixing the mixture evenly; (11) reading the conversion rate by Caliper Ezreader II. The dose-effect curve was fitted by the log (inhibitor) vs. response-variable slope of GraphPad Prism 5 with the log value of concentration as the X axis and the percentage inhibition rate as the Y axis, then the IC50 value of each compound on the enzyme activity was obtained.

Hep3B cells = experiment: Hep3B cell proliferation (CellTiter-Glo, 72 hours); assay type: cell-based; details: read-out: Hep3B IC50
Method: 1. Test method: inoculating Hep3B cells (ATCC) in logarithmic growth phase at an appropriate density in a 96-well culture plate, with 100 μL per well. After overnight culture, different concentrations of compounds were added to stay for 72 hours, and menstruum control group (negative control) was set, and the incubation was performed under the condition of 5% CO2 at 37° C. Adding 10 mM compound stock solution to the cells, after the cells were incubated with the compounds for 72 hours, the effects of the compounds on cell proliferation were determined by CellTiter-Glo (Promega) method. 30 μL CTG reagent was added to each well and the resulting mixtures were placed in a 37° C. incubator for 2-4 hours. Then the plate was read by a full-wavelength microplate enzyme reader Envision at a […].
The inhibition rates (%) of the compounds on tumor cell growth were calculated by the following formula: inhibition rate (%)=(OD negative control well−OD administration well)/OD negative control well×100%. IC50 values were obtained by four parameters regression using Graphpad Prism 5 software.

FGFR1 = FGFR1 (Homo sapiens (Human), UniProt P11362); experiment: Inhibitory activity on kinase FGFR1 (Caliper mobility shift); assay type: biochemical; details: read-out: FGFR1 IC50
FGFR1, sequence (P11362 22-822): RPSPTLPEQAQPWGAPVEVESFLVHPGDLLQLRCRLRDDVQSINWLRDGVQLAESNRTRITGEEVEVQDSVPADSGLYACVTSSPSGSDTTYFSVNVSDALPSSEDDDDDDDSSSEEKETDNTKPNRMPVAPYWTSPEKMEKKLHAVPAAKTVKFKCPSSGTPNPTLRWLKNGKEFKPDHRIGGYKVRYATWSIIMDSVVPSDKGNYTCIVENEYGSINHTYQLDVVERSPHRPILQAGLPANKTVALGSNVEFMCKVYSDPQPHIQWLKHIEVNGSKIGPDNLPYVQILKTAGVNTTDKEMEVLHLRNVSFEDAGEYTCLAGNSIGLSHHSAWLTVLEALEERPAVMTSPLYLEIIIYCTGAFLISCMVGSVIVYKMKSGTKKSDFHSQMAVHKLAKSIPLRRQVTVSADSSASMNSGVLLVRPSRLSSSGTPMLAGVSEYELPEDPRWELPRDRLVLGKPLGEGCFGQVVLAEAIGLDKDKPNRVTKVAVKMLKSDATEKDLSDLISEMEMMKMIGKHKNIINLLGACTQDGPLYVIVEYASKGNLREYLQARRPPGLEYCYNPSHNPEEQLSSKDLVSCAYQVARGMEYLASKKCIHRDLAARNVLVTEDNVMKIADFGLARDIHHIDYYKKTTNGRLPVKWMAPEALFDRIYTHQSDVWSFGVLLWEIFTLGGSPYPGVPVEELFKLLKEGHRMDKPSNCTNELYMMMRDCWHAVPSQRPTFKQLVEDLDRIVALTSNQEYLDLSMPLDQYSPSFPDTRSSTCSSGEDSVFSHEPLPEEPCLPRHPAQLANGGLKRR
Method: as §1

FGFR4, sequence (P22455 22-802): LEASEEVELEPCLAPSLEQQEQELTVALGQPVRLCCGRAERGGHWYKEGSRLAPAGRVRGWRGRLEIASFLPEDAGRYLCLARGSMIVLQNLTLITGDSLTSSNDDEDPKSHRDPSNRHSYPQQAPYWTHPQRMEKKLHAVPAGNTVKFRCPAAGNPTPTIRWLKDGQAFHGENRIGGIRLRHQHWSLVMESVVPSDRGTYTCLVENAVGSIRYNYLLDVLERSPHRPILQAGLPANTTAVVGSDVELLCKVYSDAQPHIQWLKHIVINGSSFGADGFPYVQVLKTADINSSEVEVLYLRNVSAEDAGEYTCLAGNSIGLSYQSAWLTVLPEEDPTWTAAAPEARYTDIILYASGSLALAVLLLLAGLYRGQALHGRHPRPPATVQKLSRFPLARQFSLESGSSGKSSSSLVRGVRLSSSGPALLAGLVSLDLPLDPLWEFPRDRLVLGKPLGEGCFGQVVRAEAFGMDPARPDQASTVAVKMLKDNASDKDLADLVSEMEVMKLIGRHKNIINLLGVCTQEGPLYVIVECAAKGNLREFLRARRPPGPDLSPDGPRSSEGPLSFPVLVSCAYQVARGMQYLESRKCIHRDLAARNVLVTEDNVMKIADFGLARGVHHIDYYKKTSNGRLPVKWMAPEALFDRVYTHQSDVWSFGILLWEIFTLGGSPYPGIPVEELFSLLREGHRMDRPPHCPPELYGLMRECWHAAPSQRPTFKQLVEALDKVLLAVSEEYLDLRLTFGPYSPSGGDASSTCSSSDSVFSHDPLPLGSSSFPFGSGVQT

## C=CC(=O)N1CCN(CCCc2cn3c(n2)c(-c2c(Cl)c(OC)cc(OC)c2Cl)cc2cnc(NCC4CC4)nc23)CC1 [Embodiment 4]
FGFR4
  IC50: < 20 nM
Hep3B cells; Homo sapiens, Hep3B
  IC50: < 20 nM
FGFR1
  IC50: < 20 nM

## C=CC(=O)N1CCN(CCCc2cn3c(n2)c(-c2c(Cl)c(OC)cc(OC)c2Cl)cc2cnc(NC)nc23)CC1(C)C [Embodiment 14]
FGFR4
  IC50: 20 to 200 nM
Hep3B cells; Homo sapiens, Hep3B
  IC50: 20 to 200 nM
FGFR1
  IC50: < 20 nM

## C=CC(=O)N1CCN(CCCc2cn3c(n2)c(-c2c(Cl)c(OC)cc(OC)c2Cl)cc2cnc(NCC(O)CO)nc23)CC1 (stereo not drawn) [Embodiment 10]
FGFR4
  IC50: < 20 nM
Hep3B cells; Homo sapiens, Hep3B
  IC50: 20 to 200 nM
FGFR1
  IC50: < 20 nM

## C=CC(=O)N1CCN(CC(C)(C)Cc2cn3c(n2)c(-c2c(Cl)c(OC)cc(OC)c2Cl)cc2cnc(NC)nc23)CC1 [Embodiment 15, 1-(4-(3-(6-(2,6-dichloro-3,5-dimethoxyaniline)-2-(methylamine)imidazo[1′,2′:1,6]pyrido[2,3-d]pyrimidin-8-yl)-2,2-dimethylpropyl)piperazine-1-yl)prop-2-en-1-one]
FGFR4
  IC50: 20 to 200 nM
Hep3B cells; Homo sapiens, Hep3B
  IC50: 20 to 200 nM
FGFR1
  IC50: < 20 nM

## C=CC(=O)N1CCN(CCCc2cn3c(n2)c(-c2c(Cl)c(OC)cc(OC)c2Cl)cc2cnc(NCC4CCOC4)nc23)CC1 (stereo not drawn) [Embodiment 11]
FGFR4
  IC50: < 20 nM
Hep3B cells; Homo sapiens, Hep3B
  IC50: 20 to 200 nM
FGFR1
  IC50: < 20 nM

## C=CC(=O)N1CCN(c2cccc(-c3cn4c(n3)c(-c3c(Cl)c(OC)cc(OC)c3Cl)cc3cnc(NC)nc34)c2)CC1 [Embodiment 18, 1-(4-(3-(6-(2,6-dichloro-3,5-dimethoxyphenyl)-2-(methylamine)imidazo[1′,2′:1,6]pyrido[2,3-d]pyrimidin-8-yl)phenyl)piperazine-1-yl)acrylamide]
FGFR4
  IC50: > 200 nM
Hep3B cells
  IC50: 20 to 200 nM
FGFR1
  IC50: < 20 nM

## C=CC(=O)N1CCN(CCCc2cn3c(n2)c(-c2c(Cl)c(OC)cc(OC)c2Cl)cc2cnc(NC)cc23)CC1 [Embodiment 5]
FGFR4
  IC50: < 20 nM
Hep3B cells; Homo sapiens, Hep3B
  IC50: < 20 nM
FGFR1
  IC50: < 20 nM

## C=CC(=O)NCc1cccc(-c2cn3c(n2)c(-c2c(Cl)c(OC)cc(OC)c2Cl)cc2cnc(NC)nc23)c1 [Embodiment 19, N-(3-(6-(2,6-dichloro-3,5-dimethoxyphenyl)-2-(methylamino)imidazo[1′,2′:1,6]pyrido[2,3-d]pyrimidin-8-yl)benzyl)acrylamide]
FGFR4
  IC50: > 200 nM
Hep3B cells; Homo sapiens, Hep3B
  IC50: 20 to 200 nM
FGFR1
  IC50: < 20 nM

## C=CC(=O)N1CCN(CCCc2cn3c(n2)c(-c2c(F)c(OC)cc(OC)c2F)cc2cnc(NC)cc23)CC1 [Embodiment 2]
FGFR4
  IC50: < 20 nM
Hep3B cells; Homo sapiens, Hep3B
  IC50: < 20 nM
FGFR1
  IC50: < 20 nM

## C=CC(=O)N1CCN(Cc2cn3c(n2)c(-c2c(Cl)c(OC)cc(OC)c2Cl)cc2cnc(NC)nc23)CC1 [Embodiment 16, 1-(4-((6-(2,6-dichloro-3,5-phenyldimethoxyphenyl)-2-(methylamine)imidazo[1′,2′:1,6]pyrido[2,3-d]pyrimidin-8-yl)methyl)piperazine-1-yl)acrylamide]
FGFR4
  IC50: > 200 nM
Hep3B cells; Homo sapiens, Hep3B
  IC50: 20 to 200 nM
FGFR1
  IC50: < 20 nM

## C=CC(=O)N1CCN(CCCc2cn3c(n2)c(-c2c(Cl)c(OC)cc(OC)c2Cl)cc2cnc(NCCOC)nc23)CC1 [Embodiment 6, 1-(4-(3-(6-(2,6-dichloro-3,5-dimethoxyaniline)-2-((2-methoxyethyl)amino)imidazo[1′,2′:1,6]pyrido[2,3-d]pyrimidin-8-yl)propyl)piperazine-1-yl)prop-2-en-1-one]
FGFR4
  IC50: < 20 nM
Hep3B cells; Homo sapiens, Hep3B
  IC50: < 20 nM
FGFR1
  IC50: < 20 nM

## C=CC(=O)N1CCN(CCCc2cn3c(n2)c(-c2c(Cl)c(OC)cc(OC)c2Cl)cc2cnc(NCCN4CCN(C)CC4)nc23)CC1 [Embodiment 7, 1-(4-(3-(6-(2,6-dichloro-3,5-dimethoxyaniline)-2-((2-(4-methylpiperazine-1-yl)ethylethyl)amino)imidazo[1′,2′:1,6]pyrido[2,3-d]pyrimidin-8-yl)propyl)piperazine-1-yl)prop-2-en-1-one]
FGFR4
  IC50: < 20 nM
Hep3B cells; Homo sapiens, Hep3B
  IC50: 20 to 200 nM
FGFR1
  IC50: < 20 nM

## C=CC(=O)N1CCN(CCCc2cn3c(n2)c(-c2c(Cl)c(OC)cc(OC)c2Cl)cc2cnc(NCCN(C)C)nc23)CC1 [Embodiment 9]
FGFR4
  IC50: < 20 nM
Hep3B cells; Homo sapiens, Hep3B
  IC50: 20 to 200 nM
FGFR1
  IC50: < 20 nM

## C=CC(=O)N1CCN(CCCc2cn3c(n2)c(-c2c(Cl)c(OC)cc(OC)c2Cl)cc2cnc(NCCC#N)nc23)CC1 [Embodiment 13]
FGFR4
  IC50: < 20 nM
Hep3B cells; Homo sapiens, Hep3B
  IC50: 20 to 200 nM
FGFR1
  IC50: < 20 nM

## C=CC(=O)N1CCN(CCCc2cn3c(n2)c(-c2c(F)c(OC)cc(OC)c2F)cc2cnc(NC)nc23)CC1 [Embodiment 1]
FGFR4
  IC50: < 20 nM
Hep3B cells; Homo sapiens, Hep3B
  IC50: < 20 nM
FGFR1
  IC50: < 20 nM

## C=CC(=O)N1CCN(CCCc2cn3c(n2)c(-c2c(Cl)c(OC)cc(OC)c2Cl)cc2cnc(NCC)nc23)CC1 [Embodiment 8]
FGFR4
  IC50: < 20 nM
Hep3B cells; Homo sapiens, Hep3B
  IC50: < 20 nM
FGFR1
  IC50: < 20 nM

## C=CC(=O)N1CCN(CCCc2cn3c(n2)c(-c2c(Cl)c(OC)cc(OC)c2Cl)cc2cnc(NCC(C)(C)O)nc23)CC1 [Embodiment 12]
FGFR4
  IC50: < 20 nM
Hep3B cells; Homo sapiens, Hep3B
  IC50: 20 to 200 nM
FGFR1
  IC50: < 20 nM
